Laboratory results as given in publication PMC8841438 (Clinical and Translational Science, 2021).

How the values were obtained:
[1] = target: T1, organic cation transporter 2 (OCT2) (Homo sapiens, UniProt O15244); assay: In vitro transporter inhibition: OCT2; assay type: in vitro ADME; conditions: data on file at Gilead Sciences, Inc.
T1 sequence (O15244 1-555): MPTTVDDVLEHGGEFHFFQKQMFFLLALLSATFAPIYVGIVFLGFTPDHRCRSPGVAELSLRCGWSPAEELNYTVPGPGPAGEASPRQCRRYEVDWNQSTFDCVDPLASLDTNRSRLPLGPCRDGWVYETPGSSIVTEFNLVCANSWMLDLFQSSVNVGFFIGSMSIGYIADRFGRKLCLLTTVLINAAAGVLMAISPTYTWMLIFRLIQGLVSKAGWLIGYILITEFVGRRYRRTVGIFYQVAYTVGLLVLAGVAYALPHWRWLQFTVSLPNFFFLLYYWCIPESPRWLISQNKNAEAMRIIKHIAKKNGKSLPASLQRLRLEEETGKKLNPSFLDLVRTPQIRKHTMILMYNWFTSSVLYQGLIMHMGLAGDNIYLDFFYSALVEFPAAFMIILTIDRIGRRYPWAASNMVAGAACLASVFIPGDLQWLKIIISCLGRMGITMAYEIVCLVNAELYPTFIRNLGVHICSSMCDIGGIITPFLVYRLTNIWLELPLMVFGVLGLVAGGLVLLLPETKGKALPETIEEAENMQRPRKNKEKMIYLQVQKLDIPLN

MATE1 = target: T2, MATE1 (Homo sapiens, UniProt Q96FL8); assay: In vitro transporter inhibition: MATE1; assay type: in vitro ADME; conditions: data on file at Gilead Sciences, Inc.
T2 sequence (Q96FL8 1-570): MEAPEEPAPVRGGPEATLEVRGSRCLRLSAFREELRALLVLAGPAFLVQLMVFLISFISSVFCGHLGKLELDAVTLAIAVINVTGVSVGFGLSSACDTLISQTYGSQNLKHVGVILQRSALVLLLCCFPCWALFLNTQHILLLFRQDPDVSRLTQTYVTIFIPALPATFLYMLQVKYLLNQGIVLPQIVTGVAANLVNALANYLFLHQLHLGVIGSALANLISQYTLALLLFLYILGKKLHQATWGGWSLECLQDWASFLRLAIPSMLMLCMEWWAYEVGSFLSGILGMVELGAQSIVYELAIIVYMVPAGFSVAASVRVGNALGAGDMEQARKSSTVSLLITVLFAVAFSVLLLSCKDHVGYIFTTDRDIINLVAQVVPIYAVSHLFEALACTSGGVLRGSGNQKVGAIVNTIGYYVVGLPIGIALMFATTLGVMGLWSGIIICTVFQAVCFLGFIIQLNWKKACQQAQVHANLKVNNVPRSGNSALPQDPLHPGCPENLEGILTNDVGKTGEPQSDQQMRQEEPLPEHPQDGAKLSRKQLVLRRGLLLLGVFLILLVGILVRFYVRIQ

[2] = cited from earlier work
[3] = test system: organic anion transporter 3; conditions: in vitro; at clinically relevant concentrations; cited from earlier work
cytochrome P450 enzymes = conditions: cited from earlier work
[4] = patients with rheumatoid arthritis

Compound: O=C(Nc1nc2cccc(-c3ccc(CN4CCS(=O)(=O)CC4)cc3)n2n1)C1CC1 [Filgotinib]
- inhibition of OCT2 (in words) ([1]; in vitro data): may inhibit
- ratio of maximum unbound plasma concentration over in vitro IC50 against OCT2 [1, 4]: 0.26
- inhibition of MATE1 (in words) (MATE1; in vitro data): may inhibit
- ratio of maximum unbound plasma concentration over in vitro IC50 against MATE1 (MATE1; [4]): 0.26
- administered dose eliminated in the urine as filgotinib and its metabolites [2]: Approximately 87%
- dose eliminated in the feces [2]: about 15%
- orally administered dose recovered in feces as the named species ([2]; filgotinib: unchanged): ~5%
- orally administered dose recovered in urine as the named species ([2]; filgotinib: unchanged): ~ 9%
- inhibition of organic anion transporter 3 [3]: not inhibitors
- drug‐drug interactions (DDIs) liability with cytochrome P450 enzymes (cytochrome P450 enzymes; in vitro and in vivo data): relatively low
- substrate of the cytochrome P450 enzymes (cytochrome P450 enzymes; in vitro data, no reference given): not a substrate
